Assay results reported in PMC3085955 (Journal of medicinal chemistry, 2011).

Assays:
T. gondii RHΔhxgprt = type: cell-based, Toxoplasma gondii; details: for apicoplast replication: 1st infection cycle, T. gondii RHΔhxgprt
T. gondii YFP = experiment: T. gondii replication assay in two successive infection cycles; type: cell-based, Toxoplasma gondii; details: exposure to less than 1 μM in the first cycle
cultured mammalian cells = details: cited from earlier work

Molecule | apicoplast replication (T. gondii RHΔhxgprt) | reduction in parasite titers by the end of the second infection cycle (T. gondii YFP) [fold] | concentration showing toxicity against cultured mammalian cells (cultured mammalian cells) [µM] | ratio of plastid to nuclear DNA (T. gondii RHΔhxgprt; either infection cycle)
CC[C@H]1OC(=O)[C@H](C)[C@@H](O[C@H]2C[C@@](C)(OC)[C@@H](O)[C@H](C)O2)[C@H](C)[C@@H](O[C@@H]2O[C@H](C)C[C@H](N(C)C)[C@H]2O)[C@](C)(O)C[C@@H](C)CN(C)[C@H](C)[C@@H](O)[C@]1(C)O [Compound 3, Azithromycin] | significantly impaired | > 2 | ~100 | –
CC[C@H]1OC(=O)[C@H](C)[C@@H](O[C@H]2C[C@@](C)(OC)[C@@H](O)[C@H](C)O2)[C@H](C)[C@@H](O[C@@H]2O[C@H](C)C[C@H](N(C)C)[C@H]2O)[C@](C)(O)C[C@@H](C)CN(Cc2ccccc2)[C@H](C)[C@@H](O)[C@]1(C)O [Compound 11, N-benzyl-azithromycin] | significantly impaired | – | – | –
CC[C@H]1OC(=O)[C@H](C)[C@@H](O[C@H]2C[C@@](C)(OC)[C@@H](O)[C@H](C)O2)[C@H](C)[C@@H](O[C@@H]2O[C@H](C)C[C@H](N(C)C)[C@H]2O)[C@](C)(O)C[C@@H](C)CN(CCCc2ccccc2)[C@H](C)[C@@H](O)[C@]1(C)O [Compound 30, N-phenylpropyl-azithromycin] | significantly impaired | – | – | –
CCc1nc(N)nc(N)c1-c1ccc(Cl)cc1 [Pyrimethamine] | – | – | – | did not affect
Spiramycin | significantly impaired | – | – | –
